Source: PubChem BioAssay AID330 (DTP/NCI, 2004)
“And” between values parts separate entries of the source, which are not always exact repeats. Identical values can stand only once. Toxic doses and inconclusive results are not listed. Rule for the calls: active = survival T/C of 150% or more; inactive = T/C below 125% in these data.

Tested on: P388 leukemia ip, CD2F1 mice, survival T/C
Test: NCI In Vivo Anticancer Drug Screen. Data for tumor model P388 Leukemia (intraperitoneal) in CD2F1 (CDF1) mice
Conditions: endpoint: median survival time, higher = longer survival
In short: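 Mice carrying the transplanted tumor received test compound or vehicle. Survival was recorded in each group, and the value is the treated-group measurement divided by that of the vehicle-treated control group.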

[1] = dose: 50.0 mg/kg/injection, schedule: Q01DX005 (ip), vehicle: saline with Tween-80
[2] = dose: 100.0 mg/kg/injection, schedule: Q01DX005 (ip), vehicle: saline with Tween-80
[3] = dose: 50.0 mg/kg/injection, schedule: Q01DX009 (ip), vehicle: saline with Tween-80
[4] = dose: 100.0 mg/kg/injection, schedule: Q01DX009 (ip), vehicle: saline with Tween-80
[5] = dose: 200.0 mg/kg/injection, schedule: Q01DX009 (ip), vehicle: saline with Tween-80
[6] = dose: 50.0 mg/kg/injection, schedule: Q01DX009 (ip), vehicle: water
[7] = dose: 12.5 mg/kg/injection, schedule: Q01DX005 (ip), vehicle: saline with Tween-80
[8] = dose: 25.0 mg/kg/injection, schedule: Q01DX005 (ip), vehicle: saline with Tween-80
[9] = dose: 100.0 mg/kg/injection, schedule: Q01DX001 (ip), vehicle: saline with Tween-80
[10] = dose: 200.0 mg/kg/injection, schedule: Q01DX001 (ip), vehicle: saline with Tween-80
[11] = dose: 400.0 mg/kg/injection, schedule: Q01DX001 (ip), vehicle: saline with Tween-80
[12] = dose: 100.0 mg/kg/injection, schedule: Q04DX003 (ip), vehicle: saline with Tween-80
[13] = dose: 200.0 mg/kg/injection, schedule: Q04DX003 (ip), vehicle: saline with Tween-80
[14] = dose: 60.0 mg/kg/injection, schedule: Q01DX005 (ip), vehicle: Klucel (hydroxypropylcellulose) (HPC)
[15] = dose: 120.0 mg/kg/injection, schedule: Q01DX005 (ip), vehicle: Klucel (hydroxypropylcellulose) (HPC)
[16] = dose: 240.0 mg/kg/injection, schedule: Q01DX005 (ip), vehicle: Klucel (hydroxypropylcellulose) (HPC)
[17] = dose: 400.0 mg/kg/injection, schedule: Q04DX003 (ip), vehicle: saline with Tween-80
[18] = dose: 50.0 mg/kg/injection, schedule: Q01DX009 (ip), vehicle: Klucel (hydroxypropylcellulose) (HPC)
[19] = dose: 100.0 mg/kg/injection, schedule: Q01DX009 (ip), vehicle: Klucel (hydroxypropylcellulose) (HPC)
[20] = dose: 200.0 mg/kg/injection, schedule: Q01DX009 (ip), vehicle: Klucel (hydroxypropylcellulose) (HPC)
[21] = dose: 100.0 mg/kg/injection, schedule: Q04DX002 (ip), vehicle: Klucel (hydroxypropylcellulose) (HPC)
[22] = dose: 25.0 mg/kg/injection, schedule: Q01DX005 (ip), vehicle: Klucel (hydroxypropylcellulose) (HPC)
[23] = dose: 50.0 mg/kg/injection, schedule: Q01DX005 (ip), vehicle: Klucel (hydroxypropylcellulose) (HPC)
[24] = dose: 100.0 mg/kg/injection, schedule: Q01DX005 (ip), vehicle: Klucel (hydroxypropylcellulose) (HPC)

Measured: T/C

CC1=NN(C(=O)c2ccc(Cl)cc2)C(=O)C1N=Nc1ccc(S(=O)(=O)Nc2ncccn2)cc1 (stereo unspecified)
inactive: [1] 94 % of control | [2] 97 % of control | dose: 200.0 mg/kg/injection, schedule: Q01DX005 (ip), vehicle: saline with Tween-80 87 % of control

ClCC1CSC(c2ccccc2)O1 (stereo unspecified)
inactive: [3] 90 % of control | [4] 109 % of control | [5] 101 % of control

CC(C)c1ccc(C2NC(=S)NC(=O)C2C#N)cc1 (stereo unspecified)
inactive: dose: 50.0 mg/kg/injection, schedule: Q01DX009 (ip), vehicle: saline 101 % of control | dose: 100.0 mg/kg/injection, schedule: Q01DX009 (ip), vehicle: saline 100 % of control | dose: 200.0 mg/kg/injection, schedule: Q01DX009 (ip), vehicle: saline 98 % of control

COc1cc2c(cc1OC)-c1cc3cc(OC)c(OC)cc3c(C)[n+]1CC2 (tested in a mixture with another compound)
inactive: dose: 1.56 mg/kg/injection, schedule: Q01DX009 (ip), vehicle: water 102 % of control | dose: 3.13 mg/kg/injection, schedule: Q01DX009 (ip), vehicle: water 102 % of control | dose: 6.25 mg/kg/injection, schedule: Q01DX009 (ip), vehicle: water 111 % of control | dose: 12.5 mg/kg/injection, schedule: Q01DX009 (ip), vehicle: water 118 % of control | dose: 14.8 mg/kg/injection, schedule: Q01DX009 (ip), vehicle: water 113 % of control | dose: 22.0 mg/kg/injection, schedule: Q01DX009 (ip), vehicle: water 109 % of control | dose: 33.0 mg/kg/injection, schedule: Q01DX009 (ip), vehicle: water 117 % of control | [6] 116 % of control | dose: 75.0 mg/kg/injection, schedule: Q01DX009 (ip), vehicle: water 97 % of control

O=C(NCCCCCCCNC(=O)C12CC3CC(CC(C3)C1)C2)C12CC3CC(CC(C3)C1)C2
inactive: [7] 93 % of control | [8] 89 % of control | [1] 88 % of control and 89 % of control

CCC(c1ccc(OC)cc1)C(NCC(=O)N/N=C1\C[C@@H]2[C@H](CC[C@]3(C)[C@@H](O)CC[C@@H]23)c2c(C)cc(O)cc21)c1ccc(OC)cc1 (stereo partly specified)
inactive: [9] 106 % of control | [10] 107 % of control | [11] 101 % of control

CC(C)C/C=C\CCCCCCCCCC(=O)NCC(=O)O
inactive: dose: 12.5 mg/kg/injection, schedule: Q01DX009 (ip), vehicle: distilled water + Tween-80 93 % of control | dose: 25.0 mg/kg/injection, schedule: Q01DX009 (ip), vehicle: distilled water + Tween-80 92 % of control | dose: 50.0 mg/kg/injection, schedule: Q01DX009 (ip), vehicle: distilled water + Tween-80 95 % of control | dose: 100.0 mg/kg/injection, schedule: Q01DX009 (ip), vehicle: distilled water + Tween-80 93 % of control | dose: 200.0 mg/kg/injection, schedule: Q01DX009 (ip), vehicle: distilled water + Tween-80 100 % of control

C/C(=N\NC(=S)N1CCCCCC1)c1cccc(C)n1
inactive: [7] 110 % of control | [8] 109 % of control | [1] 120 % of control

NS(=O)(=O)c1ccc(C(=O)O)cc1
inactive: dose: 25.0 mg/kg/injection, schedule: Q04DX003 (ip), vehicle: saline with Tween-80 101 % of control | dose: 50.0 mg/kg/injection, schedule: Q04DX003 (ip), vehicle: saline with Tween-80 94 % of control | [12] 100 % of control | [13] 103 % of control

O=C(O)C1C2CC3CC2C(C3)C1C(=O)O (stereo unspecified)
inactive: [14] 100 % of control | [15] 100 % of control | [16] 99 % of control

Cc1[nH]cc2c1C(c1ccccc1F)=NCC(=O)N2
inactive: [12] 101 % of control | [13] 100 % of control | [17] 101 % of control

CCOc1ccc(-n2c(-c3ccc(F)cc3)c(N=Nc3ccccc3)sc2=N)cc1
inactive: [14] 96 % of control | [15] 102 % of control | [16] 108 % of control

O=C1C(=C2C=CN(CCN3CCCCC3)C=C2)C(=O)c2ccccc21
inactive: [18] 100 % of control | [19] 100 % of control | [20] 87 % of control

Cc1cc(N=Cc2ccc(C=Nc3ccc(Br)c(C)c3)cc2)ccc1Br
inactive: [18] 101 % of control | [19] 93 % of control | [20] 92 % of control

CC1(C)C=CC2=C(O1)C(=O)c1ccccc1C2=O
inactive: dose: 25.0 mg/kg/injection, schedule: Q01DX009 (ip), vehicle: water 101 % of control | [6] 107 % of control | dose: 100.0 mg/kg/injection, schedule: Q01DX009 (ip), vehicle: water 115 % of control | dose: 200.0 mg/kg/injection, schedule: Q01DX009 (ip), vehicle: water 110 % of control

COC(=O)c1cc(=O)n(-c2ccccc2C)c(SC)n1
inactive: [21] 105 % of control | dose: 200.0 mg/kg/injection, schedule: Q04DX002 (ip), vehicle: Klucel (hydroxypropylcellulose) (HPC) 105 % of control

C=CSS/C(=C/N(C=O)Cc1cnc(C)nc1N)CCO
inactive: [22] 108 % of control | [23] 108 % of control | [24] 102 % of control | dose: 200.0 mg/kg/injection, schedule: Q01DX005 (ip), vehicle: Klucel (hydroxypropylcellulose) (HPC) 117 % of control

O=c1cc[nH]c(=S)[nH]1.[Cu+2]
inactive: dose: 1.56 mg/kg/injection, schedule: Q01DX009 (ip), vehicle: DMSO 100 % of control | dose: 3.12 mg/kg/injection, schedule: Q01DX009 (ip), vehicle: DMSO 99 % of control | dose: 6.25 mg/kg/injection, schedule: Q01DX009 (ip), vehicle: DMSO 86 % of control | dose: 12.5 mg/kg/injection, schedule: Q01DX009 (ip), vehicle: DMSO 100 % of control

C/C(=C\Cl)CO
inactive: dose: 25.0 mg/kg/injection, schedule: Q01DX009 (ip), vehicle: saline with Tween-80 111 % of control | [3] 111 % of control | [4] 94 % of control

Cn1cccc1C(C=C(c1ccccc1)c1ccccc1)c1cccn1C
inactive: [7] 113 % of control | [8] 114 % of control | [1] 104 % of control and 88 % of control

CC1SC(=O)NN=C1c1ccccc1 (stereo unspecified)
inactive: [3] 94 % of control | [4] 97 % of control | [5] 106 % of control

COC(=O)[C@]12C(=O)C=CC(=O)C1CC=CC2C(OC(C)=O)C(COC(C)=O)OC(C)=O (stereo partly specified)
inactive: [9] 103 % of control | [10] 100 % of control | [11] 103 % of control

O=C(NNC(O)C(F)(F)F)c1ccccc1F (stereo unspecified)
inactive: [21] 99 % of control

CCCCCCCCCCCCC(=O)N1CCOCC1
inactive: [12] 100 % of control | [13] 95 % of control | [17] 110 % of control

CCOC(=O)c1ccc(N2C(=O)C3C4C=CC(O4)C3C2=O)cc1 (stereo unspecified)
inactive: dose: 100.0 mg/kg/injection, schedule: Q04DX003 (ip), vehicle: Klucel (hydroxypropylcellulose) (HPC) 112 % of control | dose: 200.0 mg/kg/injection, schedule: Q04DX003 (ip), vehicle: Klucel (hydroxypropylcellulose) (HPC) 105 % of control | dose: 400.0 mg/kg/injection, schedule: Q04DX003 (ip), vehicle: Klucel (hydroxypropylcellulose) (HPC) 111 % of control

O=C(Nn1nnnc1-c1ccccc1)c1ccccc1
inactive: [22] 97 % of control | [23] 92 % of control | [24] 101 % of control

CCN(CC)c1nc(N(CC)CC)c2[nH]cnc2n1
inactive: [7] 102 % of control | [8] 100 % of control | [1] 98 % of control and 105 % of control | [2] 105 % of control
